Laboratory results from article PMC12241370, “Anti-biofilm peptides can rescue fluconazole and amphotericin B efficacies against Candida albicans” (Scientific Reports, 2025).

Columns and labels:
[1] = test system: C. albicans laboratory strain and clinical isolates; test: Resazurin reduction viability assay of planktonic cells; type: cell-based, Candida albicans; conditions: for strains whose viability could not be reduced to zero: 1x ED: 2 µg/mL amphotericin B, 8 µg/mL fluconazole
Procedure: KG, Nümbrecht, Germany) at 37 °C with shaking at 900 rpm on an Eppendorf shaker. The quantification of viable yeast cells was carried out using a Resazurin-Reduction-Assay[86]. Accordingly, the cells were exposed to 20 µL of a 0.15 mg/mL resazurin solution for 2 h and subsequently the amount of converted resorufin was determined with fluorescence measurements at an excitation wavelength of 535 and an emission of 595 nm with a Tecan infinite F200 microplate reader (Tecan Group Ltd., Männedorf, Switzerland).

[2] = test system: C. albicans laboratory strain and clinical isolates; test: Biofilm formation, crystal violet assay; type: cell-based, Candida albicans
Procedure: In order to evaluate the antifungal effects of the Pom-1 derivatives combined with amphotericin B or fluconazole on biofilm formation, a crystal violet assay was performed[84],[85]. For this, 2.5 × 10^4 yeast cells/mL were incubated in 200 µL of RPMI-1640 medium supplemented with amphotericin B, fluconazole and Pom-1 to Pom-1 F in flat-bottomed polystyrene microtiter plates with 96 wells for 24 h at 37 °C without agitation. Subsequently, the planktonic phase was removed, the remaining cells attached to the wells were washed twice with 200 µL of demineralized water and exposed to 200 µL of 0.1% (w/v) crystal violet solution for 15 min. Afterwards, the solution was removed and the cells were washed again twice with 200 µL of demineralized water and the plates were left to dry for 24 h at 25 °C. To dissolve the stain, 200 µL of 30% acetic acid was added and transferred to a new plate after 15 min. […] By comparing the resulting data against the untreated controls, the efficacy of the agents could be assessed.

[3] = test system: C. albicans clinical isolate 23; test: Resazurin viability assay of clinical isolate 23; type: cell-based, Candida albicans; conditions: antifungal alone at 1x ED
Procedure: The viability of C. albicans cells was assessed following the guidelines of the Clinical and Laboratory Standards Institute (M27-A3)[86]. Accordingly, 2.5 × 10^4 yeast cells/mL were cultured in 200 µL of RPMI-1640 medium in the presence of peptide (Pom-1 to Pom-1 F) and amphotericin B or fluconazole in different concentrations (0.1x ED/MBIC and 0.5x ED/MBIC) in flat-bottomed polystyrene microtiter plates with 96 wells (Sarstedt AG and Co. KG, Nümbrecht, Germany) at 37 °C with shaking at 900 rpm on an Eppendorf shaker. The quantification of viable yeast cells was carried out using a Resazurin-Reduction-Assay[86]. Accordingly, the cells were exposed to 20 µL of a 0.15 mg/mL resazurin solution for 2 h and subsequently the amount of converted resorufin was determined with fluorescence measurements at an excitation wavelength of 535 and an emission of 595 nm with a Tecan infinite F200 microplate reader (Tecan Group Ltd., Männedorf, Switzerland).
Figure S4. Inherent resilience to aggregation by isolate 23 and marginal reduction of viability by further raised concentrations of antifungal and peptide combinations. (A) Microscopic analysis using a Leica DMi8 coded (Leica Microsystems CMS GmbH, Wetzlar, Germany) microscope of C. albicans laboratory strain and clinical isolate 23 with and without treatment with Pom-1. The pictures were taken after an incubation time of 2 h. […]

[4] = test system: C. albicans reference strain; test: Permeabilization assay with fluorescent dyes of increasing size; type: cell-based, Candida albicans; conditions: FITC, propidium iodide, ATTO 488 alkyne, rhodamine phalloidin; Pom-1 or Cm-p5 at 2.5 µg/mL and 10 µg/mL, 2 h, 37 °C; Triton X-100 0.2% (w/v) solution, last 10 min; fluorescence; triplicate
Procedure: For this, 2.5 × 10^4 cells/mL of the C. albicans reference strain were incubated in 200 µL of RPMI-1640 medium supplemented with either Pom-1 or Cm-p5 at final concentrations of 2.5 µg/mL and 10 µg/mL and incubated for 2 h at 37 °C. For the positive control, 100 µL of a 0.2% (w/v) solution of Triton X-100 was added 10 min prior to the end of the 2 h incubation time and for the negative control, no agent was added (untreated). After incubation, the tubes were centrifuged at 11,000 ×g and the supernatant was discarded. Afterwards, the cells were washed with once with PBS and after addition of 5 µL dye and 195 µL PBS (final concentration of dye: 5 µL/mL) the cell suspension was centrifuged at 11,000 ×g for 2 min. […] Subsequently the yeast cells were washed 3x with PBS, resuspended in 200 µL of PBS and pipetted into flat-bottomed polystyrene microtiter plates with 96 wells (Sarstedt AG and Co. KG, Nümbrecht, Germany) and fluorescence measurements were conducted at an excitation wavelength of 498 nm (FITC), 535 nm (propidium iodide), 500 nm (Atto488), and 540 nm (rhodamine phalloidin) and an emission of 517 nm (FITC), 617 nm (propidium iodide), 520 nm (Atto488), 565 nm (rhodamine phalloidin) with a Tecan infinite F200 microplate reader (Tecan Group Ltd., Männedorf, Switzerland). […]

[5] = test system: human dermal fibroblasts (HDF); test: Resazurin viability assay for cell culture (HDF); type: cell-based; conditions: detergent cell lysis control
Procedure: (§1) Adenocarcinomic human alveolar basal epithelial cells (A549) (purchased from the ATCC, Manassas, VA, USA, CRM-CCL-185)[67] and human dermal fibroblasts (HDFs) (purchased from tebu-bio GmbH, Offenbach, Germany) were used[68] for the experiments. Cultivation was conducted in DMEM with FBS (10% (w/v), 15% (w/v)), MEM NEAAs (1% (w/v)), and penicillin–streptomycin (100 U/mL, 1% (w/v)) at 37 °C in an incubator containing 5% CO2. To detect the viability of human cells, a resazurin reduction assay was performed. For this, 2 × 10^4 cells per well of a 96-well plate were incubated in 200 µL DMEM with additives at 37 °C and 5% CO2. After removing the medium, 100 µL of the medium and 100 µL of a peptide/antifungal solution (2.5 µg/mL, 25 µg/mL) were added. After incubation for 24 h at 37 °C and 5% CO2, 20 µL of a resazurin solution (0.15 mg/mL) were added into each well, and the cells were incubated again for 24 h at 37 °C and 5% CO2. Fluorescence measurement (excitation wavelength—535 nm, emission wavelength—595 nm) of the converted resorufin was then performed using a Tecan Infinite F200 microplate reader (Tecan Group Ltd., Männedorf, Switzerland).

A549 cells = test: Resazurin viability assay for cell culture (A549); type: cell-based, human; conditions: detergent cell lysis control
Procedure: as §1

Molecule: C[C@@H]1[C@H](O)[C@@H](C)/C=C/C=C/C=C/C=C/C=C/C=C/C=C/[C@H](O[C@@H]2O[C@H](C)[C@@H](O)[C@H](N)[C@@H]2O)C[C@@H]2O[C@](O)(C[C@@H](O)C[C@@H](O)[C@H](O)CC[C@@H](O)C[C@@H](O)CC(=O)O[C@H]1C)C[C@H](O)[C@H]2C(=O)O [amphotericin B]
- strains whose viability could not be reduced to zero [1]: 21 of 28 strains
- strains killed completely ([1]; amphotericin B only, 0.5x ED, planktonic cells, 28 strains): 7%
- isolates against which fully active (zero viability) ([1]; amphotericin B only, 1x ED (2 µg/mL), planktonic cells, 28 strains): 25%
- isolates against which fully active (death count) ([1]; amphotericin B only, 1x ED (2 µg/mL), planktonic cells, resazurin, triplicate): 7 of 28
- strains with complete biofilm inhibition (death count) ([2]; amphotericin B only, 0.1x ED): totally failed
- strains with complete biofilm inhibition (death count) ([2]; antifungal only, 0.5x ED): 2 of 21
- strains with complete biofilm inhibition ([2]; antifungal only, 0.5x ED, 21 strains): 9.5%
- strains with complete inhibition of biofilms ([2]; antifungal only, 1x ED (2 µg/mL), 21 strains): 52%
- strains with complete inhibition of biofilms (death count) ([2]; antifungal only, 1x ED (2 µg/mL), crystal violet, 24 h, 37 °C, triplicate): 11 of 21
- effect on isolate 23 [3]: unaffected

Molecule: OC(Cn1cncn1)(Cn1cncn1)c1ccc(F)cc1F [fluconazole]
- strains whose viability could not be reduced to zero [1]: 12 of 28 strains
- isolates with viability reduction (death count) ([1]; fluconazole only, 0.1x ED): 3 isolates of 28
- ratio of completely killed C. albicans isolates ([1]; fluconazole only, 1x ED (8 µg/mL), 28 strains): 57%
- effect on isolate 23 [3]: unaffected

Molecule: Triton X-100
- permeabilization of C. albicans cells for fluorescent dyes [4]: permeabilized Candida cells for all dyes
- cell viability of HDF cells [5]: zero
- cell viability of A549 cells (A549 cells): zero
